What was measured:
Set-up in all cases: species or system S. pombe
[1] = tested on: Seb1 SUMO-RRM388-540 F445A; experiment: FA, SUMO-RRM F445A binding to RNA; conditions: for effect on RNA binding, F445A: FA, SUMO-RRM388-540 F445A vs WT (Fig. 3e)
Description: (§1) Recombinant WT and mutated RRM388−540 of Seb1 with an N-terminal His6-SUMO tag were expressed from modified pOPINS3C expression vector[69] in pLysS E. coli strain. For FA assays, protein eluted from NiNTA was further purified on a HiLoad 16/60 Superdex 200 prep grade column (GE Healthcare) using an ÄKTA purifier (GE Healthcare) in 50 mM Tris pH 8.0 and 200 mM NaCl, and fractions containing the Seb1-RRM388−540 concentrated to ∼5 mg ml^−1. For crystallization and SAXS, the NiNTA eluted fractions were buffer exchanged into 50 mM Tris pH 7.5, 300 mM NaCl and 500 mM NDSB-201 using a PD-10 column (GE Healthcare) and cleaved with 3C protease (Sigma-Aldrich) at room temperature overnight. His6-SUMO tag was removed using NiNTA beads and the cleaved RRM388−540 was further purified on a Superdex 75 10/100 GL column (GE Healthcare) in 20 mM HEPES pH 7.3, 150 mM NaCl and 500 mM NDSB-201. For crystallization trials, the eluted protein was concentrated to ∼8.7 mg ml^−1, for SAXS to ∼5 mg ml^−1.
(§2) For Seb1-CID1–152, binding to 75 nM of two-repeat CTD peptides containing an N-terminal 5′-fluorescein amidite (FAM)-tag (Peptides&elephants, Potsdam, Germany) was determined in 25 mM HEPES pH 7.3, 200 mM NaCl and 1 mM EDTA. For RRM388–540, binding was determined to 40 nM FAM-AUUAGUAAAA RNA (Eurofins) in 25 mM Tris-HCl pH 8.0, 100 mM NaCl, 2 mM MgCl2, 1 mM DTT, 16.7% (v/v) glycerol, 0.1% IGEPAL, 0.1 mg ml^−1 tRNA and 2.5% (v/v) RNasin (Promega). Excitation of the ligand was performed with linearly polarized light at 485 nm and emission was measured at 520 nm in parallel and perpendicular planes to the emission plane at 25 °C using a FLUOstar-Omega microplate reader (BMG-Labtech). All measurements were performed in at least duplicates, results were plotted against the protein concentration and Kd values were determined via curve fitting as described in ref. [70].

[2] = tested on: Seb1 SUMO-RRM388-540 R472E; experiment: FA, SUMO-RRM R472E binding to RNA; conditions: SUMO-RRM388-540 R472E vs WT (Fig. 3e)
Description: as §1, with “His6-SUMO tag was removed using NiNTA beads and the cleaved RRM388−540 was further purified on a Superdex 75 10/100 GL column (GE Healthcare) in 20 mM HEPES pH 7.3, 150 mM NaCl and 500 mM NDSB-201. For crystallization trials, the eluted protein was concentrated to ∼8.7 mg ml^−1, for SAXS to ∼5 mg ml^−1.” left out
as §2, with “All measurements were performed in at least duplicates, results were plotted against the protein concentration and Kd values were determined via curve fitting as described in ref. [70].” left out

[3] = tested on: Seb1 SUMO-RRM388-540 F487A; experiment: FA, SUMO-RRM F487A binding to RNA; conditions: SUMO-RRM388-540 F487A vs WT (Fig. 3e)
Description: as §1, with “His6-SUMO tag was removed using NiNTA beads and the cleaved RRM388−540 was further purified on a Superdex 75 10/100 GL column (GE Healthcare) in 20 mM HEPES pH 7.3, 150 mM NaCl and 500 mM NDSB-201. For crystallization trials, the eluted protein was concentrated to ∼8.7 mg ml^−1, for SAXS to ∼5 mg ml^−1.” left out
as §2, with “All measurements were performed in at least duplicates, results were plotted against the protein concentration and Kd values were determined via curve fitting as described in ref. [70].” left out

[4] = tested on: Seb1 SUMO-RRM388-540 S492A; experiment: FA, SUMO-RRM S492A binding to RNA; conditions: SUMO-RRM388-540 S492A vs WT (Fig. 3e)
Description: as §1, with “His6-SUMO tag was removed using NiNTA beads and the cleaved RRM388−540 was further purified on a Superdex 75 10/100 GL column (GE Healthcare) in 20 mM HEPES pH 7.3, 150 mM NaCl and 500 mM NDSB-201. For crystallization trials, the eluted protein was concentrated to ∼8.7 mg ml^−1, for SAXS to ∼5 mg ml^−1.” left out
as §2, with “All measurements were performed in at least duplicates, results were plotted against the protein concentration and Kd values were determined via curve fitting as described in ref. [70].” left out

AUUAGUAAAA (chemistry not fully specified) [RNA: AUUAGUAAAA]
effect on RNA binding, F445A ([1]; listed as FAM-labelled 10 nt-RNA): completely abolishes RNA binding
effect on RNA binding, F445A ([1]; listed as RNA): abolishes the interaction completely
Kd ([1]; fluorescence anisotropy, SUMO-RRM F445A, 40 nM FAM-RNA, Tris-HCl pH 8.0, 100 mM NaCl, 2 mM MgCl2, 25 °C, three technical replicates): > 1 mM
effect on RNA binding, R472E [2]: completely abolishes RNA binding
effect on affinity to RNA, F487A [3]: severely reduces the affinity to RNA
effect on RNA binding, S492A [4]: only a mild effect on binding
